Test results: publication PMC12664080, “Tetrazole-containing naphthalene bis-sulfonamide Keap1-Nrf2 interaction inhibitors with unexpected binding modes” (Redox Biology, 2025)
Blank lines part the entries; values can stand above or below the compound they belong to.

Tests used:
NQO1 = NQO1 induction assay in Hepa1c1c7 cells; type: cell-based, mouse; details: Mus musculus, Hepa-1c1c7, 10 μM
Method: The method using Hepa1c1c7 cells has been described previously. Briefly, cells were seeded into 96-well plates (2 × 10^4 cells/200 μL per well) then incubated overnight at 37 °C. The cells were treated with compound (10 μM final concentration) or vehicle (final DMSO concentration 0.1 % DMSO) and incubated for a further 24 h or 48 h. The culture medium was aspirated and the cells treated with lysis buffer (50 μL per well, 0.1 % Tween 20 in 2 mM EDTA (pH 7.5)) then agitated for 15 min. Enzyme reaction mixture was added to each well (200 μL of 25 mM Tris buffer (pH 7.5) containing BSA (0.067 %), Tween20 (0.01 %), FAD (5 μM), G6P (1 mM), NADP (30 μM), G6P dehydrogenase (40 units), MTT (0.03 %), menadione (50 μM)) for 5 min then stop solution was applied (40 μL of 10 % SDS, final concentration 1.5 % SDS). Following brief agitation of the plate, the absorbance at 595 nm was measured. The background optical density was measured from wells containing tissue culture medium, lysis buffer, enzyme and stop solutions in the absence of Hepa1c1c7 cells. The change in background-corrected NQO1 activity (change in optical density) relative to the control was determined for each compound.

Nrf2 = Nrf2 luciferase reporter assay (MCF7 ARE-luciferase reporter cell line); type: cell-based; details: Homo sapiens; 100 μM (highest test concentration), MCF7 cells; read-out: peak fold induction of luciferase activity
Method: The induction of luciferase activity in the stably transfected MCF7 ARE-luciferase reporter cell line was measured using an adaptation of a published procedure. […] The cells were treated with compound or vehicle control (1 % final DMSO concentration) and incubated for a further 24 h. The culture medium was aspirated and the cells were washed with 100 μL per well PBS. The cells were lysed using 75 μL per well lysis buffer (0.2 % Triton X-100 in 25 mM Tris pH 7.5) under gentle agitation at rt for 30 min. The samples were transferred to 500 μL Eppendorf tubes and centrifuged at 10000 g for 5 min at 4 °C. 50 μL of supernatant from each sample were transferred to a new 96 well plate. 50 uL of working reagent (100 mM Tris pH 8.0, 5 mM MgCl2, 100 μM coenzyme A, 80 μM luciferin, and 5 mM ATP) were added to each well and the luciferase activity was measured.

[1] = 1D 1H NMR lineshape analysis of cis/trans rotamer exchange; details: DMSO; for kA→B / ΔH^‡AB / ΔHAB: lineshape; for ΔH^‡AB: Eyring; for ΔHAB: van't Hoff
Method: Exchange was quantified using a two-site exchange model [40] implemented in Julia, where resonances were fitted to calculate chemical shifts of the two states and the exchange rates kAB and kBA between them. […] Reported uncertainties were determined from the standard errors of the fits.
Exchange rates kAB and kBA were used to determine the relative populations pA=kBA/kAB+kBA and pB=kAB/kAB+kBA and were fitted to van't Hoff and Eyring equations (with unit transmission coefficient) to estimate the enthalpy and entropy changes and enthalpy and entropy of activation.

Keap1 Kelch domain [2] = target: T1, Keap1 Kelch domain (Homo sapiens, UniProt Q14145); test: Differential scanning fluorimetry (DSF) thermal shift assay; type: binding; details: 10 μM compound; Keap1 vehicle control Ti = 61.3 ± 0.3 °C
T1 construct: made in house
T1 sequence (Q14145 322-609): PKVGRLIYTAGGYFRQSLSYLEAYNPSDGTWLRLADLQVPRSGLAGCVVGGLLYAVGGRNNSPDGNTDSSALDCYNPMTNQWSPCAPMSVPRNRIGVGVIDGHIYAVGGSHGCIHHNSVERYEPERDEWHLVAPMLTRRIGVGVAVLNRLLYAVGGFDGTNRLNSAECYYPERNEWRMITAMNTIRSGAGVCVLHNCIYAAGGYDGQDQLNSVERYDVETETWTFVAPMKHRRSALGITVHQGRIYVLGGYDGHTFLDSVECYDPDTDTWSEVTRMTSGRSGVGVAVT
Method: The DSF assays were carried out according to the previously described method. Solutions of the Keap1 Kelch domain protein (5 μM final concentration) and the small molecule inhibitor (10 μM final concentration) were prepared in DPBS at pH 7.4 (10 % final DMSO concentration, 20 μL final volume) in an Eppendorf tube. The solution was centrifuged briefly (1500 rpm, 60 s) to remove any particulates and mix the samples, followed by a 30 min incubation at RT. The samples were loaded into Tycho NT.6 capillaries (Nanotemper) in triplicate and positioned in the […] instrument. […] The fluorescence ratio vs temperature was plotted and the inflection temperature (Ti) of the profile was recorded. Changes in inflection (ΔTi) for the inhibitors were calculated by subtracting the mean Ti of the Keap1 sample plus vehicle from the mean Keap1 plus binder value (n = 3).

Keap1 Kelch domain [3] = target: T1, Keap1 Kelch domain; test: Fluorescence polarisation (FP) competition assay; type: binding; details: for inhibition at 10 µM: read-out: FP percentage inhibition at 10 μM concentration of inhibitor; for IC50: 200 nM Keap1 Kelch domain, 1 nM FITC-β-DEETGEF-OH
Method: The FP assays were carried out according to previously described methods [[23],[31], [32], [33], [34]]. […] Following incubation under slow agitation (30 min at rt in the absence of light), the plates were transferred to a PHERAstar microplate reader and the FP was recorded. All measurements were recorded in triplicate. The data were normalised to the control and then fitted to a standard four-parameter logistic function using the Origin Pro software.

Keap1 Kelch domain [4] = target: T1, Keap1 Kelch domain; test: Isothermal titration calorimetry (ITC); type: binding; details: 25 °C; read-out: ITC Kd
Method: The measurements were performed as described previously. The small molecule inhibitor at 500 μM was titrated over 30 injections against 50 μM protein in buffer containing 25 mM HEPES (pH 7.4), 200 mM NaCl and 5 % DMSO. ITC experiments were performed using a MicroCal PEAQ-ITC instrument (Malvern Instruments, UK) at 25 °C with a stirring speed of 750 rpm. The first injection volume was of 0.3 μL followed by 29 injections of 1.3 μL and a gap of 120 s between each injection. Data analyses were performed as previously described. Each small molecule ITC measurement was performed in duplicate and resultant values obtained were averaged after independent analysis.

Keap1 = Keap1 (Homo sapiens, UniProt Q14145); test: Microscale thermophoresis (MST); details: 10 nM Keap1
Sequence of Keap1 (Q14145 322-609): as above
Method: Keap1 was labelled using the Protein Labelling Kit RED-NHS 2nd Generation (NanoTemper, München, Germany). Keap1 was diluted to 2 μM in RED-NHS Labelling Buffer. 10 μg of RED-NHS 2nd Generation labelling dye was freshly dissolved in 25 μL of DMSO to yield a concentration of 600 μM, then further diluted in RED-NHS Labelling Buffer to 300 μM. A volume of 20 μL of the 300 μM labelling dye was thoroughly mixed with 180 μL of 2 μM Keap1 and incubated at rt in a dark environment for 3 h. […] The sample was transferred to the centre of the resin bed in the B-column. 550 μL of Keap1 MST buffer was pipetted into the B-column and allowed to enter completely, followed by elution of the sample with 450 μL of Keap1 MST buffer and the flow-through was collected into a 1.5 mL Eppendorf tube. The collected sample was centrifuged at 15,000×g for 10 min at 4 °C to remove aggregates. Protein concentration in the collected sample was determined using the NanoDrop spectrophotometer. The sample was then tested in MST pre-test to evaluate the labelling quality.
Labelled Keap1 was diluted to 20 nM in Keap1 MST buffer prior to the reaction setup. […] An equal volume of 20 nM Keap1 was thoroughly mixed with each diluted sample and incubated for 30 min at rt. […] An equal volume of 2 nM Keap1 was mixed with each diluted sample and incubated at rt for 30 min. Incubated samples were loaded into Monolith NT.115 standard capillaries and measured using the Monolith NT.115^Pico instrument in triplicate. Parameters and measurements were set and controlled by the MO.Control software and collected datasets were analysed using the MO.Affinity Analysis software.

SMILES: COc1ccc(S(=O)(=O)N(CC(=O)O)c2ccc(N(CC(=O)O)S(=O)(=O)c3ccc(OC)cc3)c3ccccc23)cc1 [Compound 2, 2,2'-(Naphthalene-1,4-diylbis(((4-methoxyphenyl)sulfonyl)azanediyl))diacetic acid, reference compound]
fold induction at 10 µM (NQO1): 2.34 ± 0.35
fold induction at 100 µM (Nrf2): 10.9
Occupancy of the more shielded state (A) ([1]; 300 K): 0.426 ±0.001
kA→B ([1]; 300 K): 3.175 ± 0.005 s⁻¹
Occupancy of the more shielded state (A) ([1]; 310 K): 0.436 ±0.001
kA→B ([1]; 310 K): 8.456 ± 0.024 s⁻¹
Occupancy of the more shielded state (A) ([1]; 320 K): 0.443 ±0.001
kA→B ([1]; 320 K): 18.949 ± 0.04 s⁻¹
ΔH^‡AB [1]: 15.8 ± 0.598 kcal/mol
ΔHAB [1]: -0.636 ± 0.0598 kcal/mol

SMILES: COc1ccc(S(=O)(=O)N(CC(N)=O)c2ccc(N(CC(N)=O)S(=O)(=O)c3ccc(OC)cc3)c3ccccc23)cc1 [Compound 4, 2,2'-(Naphthalene-1,4-diylbis(((4-methoxyphenyl)sulfonyl)azanediyl))diacetamide]
DSF ΔTi (Keap1 Kelch domain [2]): 7.6 ± 0.1 °C

SMILES: CCOC(=O)CN(c1ccc(N(CC(=O)OCC)S(=O)(=O)c2ccc(OC)cc2)c2ccccc12)S(=O)(=O)c1ccc(OC)cc1 [Compound 11, Diethyl 2,2'-(naphthalene-1,4-diylbis(((4-methoxyphenyl)sulfonyl)azanediyl))diacetate]
inhibition at 10 µM (Keap1 Kelch domain [3]): 0%

SMILES: COc1ccc(S(=O)(=O)N(CC#N)c2ccc(N(CC#N)S(=O)(=O)c3ccc(OC)cc3)c3ccccc23)cc1 [Compound 12, N,N'-(Naphthalene-1,4-diyl)bis(N-(cyanomethyl)-4-methoxybenzenesulfonamide)]
inhibition at 10 µM (Keap1 Kelch domain [3]): 0%
fold induction at 10 µM (NQO1): 0.89 ± 0.24

SMILES: COc1ccc(S(=O)(=O)N(Cc2nnn[nH]2)c2ccc(N(Cc3nnn[nH]3)S(=O)(=O)c3ccc(OC)cc3)c3ccccc23)cc1 [Compound 13, N,N'-(Naphthalene-1,4-diyl)bis(N-((1H-tetrazol-5-yl)methyl)-4-methoxybenzenesulfonamide)]
IC50 (Keap1 Kelch domain [3]): 76 ± 3 nM
DSF ΔTi (Keap1 Kelch domain [2]): 20.4 ± 0.1 °C
fold induction at 10 µM (NQO1): 1.94 ± 0.22
Kd (Keap1 Kelch domain [4]): 75.6 ± 33.9 nM
Kd (Keap1): 17.1 ± 2.6 nM
Occupancy of the more shielded state (A) ([1]; 300 K): 0.542 ±0.003
kA→B ([1]; 300 K): 1.063 ± 0.008 s⁻¹
Occupancy of the more shielded state (A) ([1]; 310 K): 0.548 ±0.001
kA→B ([1]; 310 K): 1.459 ± 0.006 s⁻¹
Occupancy of the more shielded state (A) ([1]; 320 K): 0.552 ±0.001
kA→B ([1]; 320 K): 2.927 ± 0.010 s⁻¹
ΔH^‡AB [1]: 10.4 ± 2.29 kcal/mol
ΔHAB [1]: -0.394 ± 0.0406 kcal/mol

SMILES: COc1ccc(S(=O)(=O)N(Cc2nnc(C)o2)c2ccc(N(Cc3nnc(C)o3)S(=O)(=O)c3ccc(OC)cc3)c3ccccc23)cc1 [Compound 17, N,N'-(Naphthalene-1,4-diyl)bis(4-methoxy-N-((5-methyl-1,3,4-oxadiazol-2-yl)methyl)benzenesulfonamide)]
binding activity in FP assay (Keap1 Kelch domain [3]): not tolerated
inhibition at 10 µM (Keap1 Kelch domain [3]): 0%
DSF ΔTi (Keap1 Kelch domain [2]): 0.6 ± 0.1 °C
fold induction at 10 µM (NQO1): 1.25 ± 0.18

Continued, in another order:

binding activity in FP assay (Keap1 Kelch domain [3]): inactive
inhibition at 10 µM (Keap1 Kelch domain [3]): 0%
SMILES: CCOC(=O)CN(c1ccc(N(CC(=O)O)S(=O)(=O)c2ccc(OC)cc2)c2ccccc12)S(=O)(=O)c1ccc(OC)cc1 [Compound 22, 2-(N-(4-(N-(2-Ethoxy-2-oxoethyl)-4-methoxyphenylsulfonamido)naphthalen-1-yl)-4-methoxyphenylsulfonamido)acetic acid]
fold induction at 10 µM (NQO1): 0.77 ± 0.18

IC50 (Keap1 Kelch domain [3]): 143 ± 18 nM
DSF ΔTi (Keap1 Kelch domain [2]): 10.0 ± 0.2 °C
SMILES: COc1ccc(S(=O)(=O)N(CC(N)=O)c2ccc(N(CC(=O)O)S(=O)(=O)c3ccc(OC)cc3)c3ccccc23)cc1 [Compound 23, 2-(N-(4-(N-(2-Amino-2-oxoethyl)-4-methoxyphenylsulfonamido)naphthalen-1-yl)-4-methoxyphenylsulfonamido)acetic acid]
fold induction at 10 µM (NQO1): 1.9 ± 0.05
